Values of other authors as cited in US20090162921A1 (priority 2005, published 2009).

Tested on: mouse
Conditions: in vivo; for LD50: po

Compound	LD50 (50% of the fatal dose in mouse)	LD50
C[As+](C)(C)CC(=O)[O-] [AB, arsenobetaine]	10000 mg/kg	10000
arsenic acid [As(V)]	14 to 18 mg/kg	14 to 18 mg/kg
